Active and inactive are the calls of the source. No rule for the calls is given here.

What is called inhibition is the relative decrease from the control value, in per cent.

This experiment addresses Serine/threonine-protein phosphatase 5 (Homo sapiens) (UniProt P53041). As to the kind of experiment: PP5 inhibitors on phosphohistone substrate, late-stage follow-up, PP5 inhibitor project, biochemical, radiolabel, single concentration (AID 463223). The conditions noted are these: purified PP5c, 33P-phosphohistone radiolabel assay, scintillation counting, 10 min; at 10 µM; active compounds read high.

Chain of Serine/threonine-protein phosphatase 5 (Homo sapiens) (P53041 whole entry, looked up): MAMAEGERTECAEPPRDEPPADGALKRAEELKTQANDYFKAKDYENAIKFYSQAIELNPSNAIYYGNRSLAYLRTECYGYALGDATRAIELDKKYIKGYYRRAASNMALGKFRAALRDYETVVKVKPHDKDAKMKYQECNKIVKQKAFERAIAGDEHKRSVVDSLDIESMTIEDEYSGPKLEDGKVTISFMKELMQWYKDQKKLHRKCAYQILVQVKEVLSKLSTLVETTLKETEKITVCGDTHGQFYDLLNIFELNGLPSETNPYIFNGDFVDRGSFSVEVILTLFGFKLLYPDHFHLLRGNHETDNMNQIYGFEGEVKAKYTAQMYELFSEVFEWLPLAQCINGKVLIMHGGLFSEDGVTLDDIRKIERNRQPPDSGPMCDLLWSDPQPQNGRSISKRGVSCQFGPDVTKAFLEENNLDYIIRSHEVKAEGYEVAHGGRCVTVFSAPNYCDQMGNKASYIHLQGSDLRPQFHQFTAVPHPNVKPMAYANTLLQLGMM

On to `Cc1ccc(C(=O)NC2(O)C(=O)c3ccccc3C2=O)cc1C`, for which the inhibition was 2.14% (inactive).
Under `CC(=O)C(C(C)=O)C1(O)C(=O)c2ccccc2C1=O` stands 2.52% (inactive); under `Cc1ccc(C(=O)NNc2cc(N3CCCC3)nc(N3CCCC3)n2)cc1`, 0.83% (inactive); under `CCCCN(CC)c1nc(N)c2c(N)nc(OCC)cc2c1C#N`, 2.68% (inactive).
On to `COc1ccc(C(=O)c2nccc3cc(OC)c(OC)cc23)cc1OC`, for which the inhibition was 1.93% (inactive).
As for `CCOC(=O)c1cnc(-n2nc(C)cc2C)nc1NCc1ccccc1`, the inhibition was 3.11% (inactive).
`COc1cnc(-c2ccccn2)nc1Sc1ccc(F)cc1`: the inhibition was -3.12% (inactive).
The same measure for `c1ccc(Nc2nc(-c3ccccn3)cs2)cc1`: -1.08% (inactive); for `CCOC(=O)c1cnc(-n2nc(C)cc2C)nc1NCCc1ccccc1`: 0.06% (inactive); for `COc1ccc(Cl)cc1C(=O)Nc1cccc(-c2ccc3nncn3n2)c1`: -1.12% (inactive).
Turning to `CCOC(=O)c1cnc(-n2nc(C)cc2C)nc1NC(C)c1ccccc1` (centres undefined), the inhibition was 0.17% (inactive).
The same measure for `O=C1Nc2ccccc2N2CCCC12` (centres undefined): -0.58% (inactive); for `COc1ccc(Sc2nc(-c3ccccn3)ncc2OC)cc1`: 1.12% (inactive); for `CCOC(=O)C1=C(C)OC2(O)c3ccccc3C(=O)C12O` (centres undefined): -1.47% (inactive).
As to `Cc1ccc(-n2nc(C(=O)O)cc2-c2ccc(Cl)cc2)cc1`, the inhibition is 1.91% (inactive).
Take `CCOC(=O)c1cnc(-n2nc(C)cc2C)nc1NC1CCCCC1`: the inhibition was 1.15% (inactive).
For the compound `COc1ccc(NC(=S)Nc2ccc3nsnc3c2)cc1`, the inhibition is -2.27% (inactive).
The same measure for `COc1ccc(CN2C(=O)Cc3c2nc(N)c2c(N)nc(N4CCCCC4)c(C#N)c32)cc1`: -2.57% (inactive).
Under `Oc1ccc(/C=N/Nc2cc(N3CCOCC3)nc(N3CCOCC3)n2)c(O)c1` stands 0.87% (inactive); under `COc1cnc(-c2ccccn2)nc1Sc1ccccc1Cl`, 0.33% (inactive).
Under `CCCCn1c(NC(=O)c2ccco2)c(C(=O)OCC)c2nc3ccccc3nc21` stands 2.8% (inactive); under `Nc1cc2nsnc2cc1Br`, 1.86% (inactive).
On to `Nc1nc(-c2ccccn2)nc(N)c1Cc1ccc(Cl)cc1Cl`, for which the inhibition was -1.92% (inactive).
In the case of `O=C(O)c1n[nH]nc1-c1ccccc1`, the inhibition was 31.1%.
For `COc1ccccc1Sc1nc(-c2ccccn2)ncc1OC`, the inhibition was -2.42% (inactive).
As to `COc1cc(Br)c(C(=O)c2nccc3cc(OC)c(OC)cc23)cc1OC`, the inhibition was 1.9% (inactive).
The same measure for `COc1cnc(-c2ccccn2)nc1Sc1ccc(Cl)cc1`: -3.05% (inactive); for `CN1CCN(C(c2ccccn2)c2cc(Cl)c3cccnc3c2O)CC1` (centres undefined): -2.91% (inactive); for `COc1cnc(-c2ccccn2)nc1Oc1cccc(C(F)(F)F)c1`: -2.17% (inactive).
Regarding `CCCN(CC1CC1)c1nc(N)c2c(N)nc(OC)cc2c1C#N`, the inhibition is 0.96% (inactive).
As to `O=C(NC1(O)C(=O)c2ccccc2C1=O)c1c(Cl)cccc1Cl`, the inhibition is -1.34% (inactive).
The same measure for `CCOC(=O)c1nn(-c2ccc(C)cc2)c(=O)c2c(N)scc12`: 0.85% (inactive); for `CCOC(=O)c1sc2nc3c(SCC(=O)O)cc(C(=O)c4cc(F)ccc4O)cn3c(=O)c2c1C`: 14.5% (inactive).
Under `O=C(O)C1C2CCC(O2)C1C(=O)NC1CCCCC1` (centres undefined) stands 45.9%; under `COc1cnc(-c2ccccn2)nc1Sc1cccc(Cl)c1`, -0.66% (inactive); under `CCn1c2ccccc2c2cc(NC(=O)COC(=O)c3ccc(NC(=O)CC#N)cc3)ccc21`, -0.66% (inactive).
Under `COc1cnc(-c2ccccn2)nc1Sc1ccc(C)cc1` stands -1.26% (inactive).
With `COc1ccc(OCCCC(=O)Nc2nc(-c3ccccn3)cs2)cc1`, the inhibition is -1.62% (inactive).
Under `N#Cc1c(-c2ccc(Cl)cc2)cc(-c2cccs2)nc1SCC(=O)O` stands 12.1% (inactive).
The same measure for `O=C(Nc1nc(-c2ccccn2)cs1)C1CC(=O)N(c2ccc3c(c2)OCCO3)C1` (centres undefined): -3.02% (inactive).
The same measure for `Cc1[nH]n(-c2ccccc2)c(=O)c1C(c1ccc([N+](=O)[O-])cc1)c1c(C)[nH]n(-c2ccccc2)c1=O`: 3.51% (inactive); for `O=C(NC1(O)C(=O)c2ccccc2C1=O)c1ccc(C(F)(F)F)cc1`: -0.52% (inactive); for `CCOc1ccc(NC(=S)Nc2ccc3nsnc3c2)cc1`: -0.34% (inactive).
Turning to `Oc1ccccc1/C=N/Nc1cc(N2CCCC2)nc(N2CCCC2)n1`, the inhibition is 3.34% (inactive).
Under `COc1ccc(Cn2c(N)c(C(=O)NCc3ccco3)c3nc4ccccc4nc32)cc1OC` stands 0.41% (inactive); under `O=C(O)c1cc(-c2ccc(Cl)c(Cl)c2)n(-c2ccc(F)cc2)n1`, -0.91% (inactive); under `CCOC(=O)c1sc(N2C(=O)C(O)=C(C(=O)c3ccco3)C2c2cccc([N+](=O)[O-])c2)nc1C` (centres undefined), 9.04% (inactive).
With `COc1ccc(NC(=O)C2C3CCC(O3)C2C(=O)O)c(OC)c1` (centres undefined), the inhibition was 49.1%.
The same measure for `Oc1cccc(/C=N/Nc2cc(N3CCCC3)nc(N3CCCC3)n2)c1`: 1.73% (inactive); for `O=C1CCCC2=C1C1(O)C(=O)c3ccccc3C1(O)O2` (centres undefined): 4.95% (inactive).
With `Clc1ccc(-n2nnnc2-c2cnc(-c3ccccn3)nc2-c2cccs2)cc1`, the inhibition is -0.04% (inactive).
Under `COc1cnc(-c2ccccn2)nc1Sc1ccccc1` stands -1.46% (inactive); under `O=S(=O)(Cc1cc(NCc2ccccc2)nc(-c2ccccn2)n1)c1ccccc1`, 8.88% (inactive); under `O=c1[nH]c(Nc2ccccc2)cc2ccccc12`, 0.47% (inactive).
Under `c1ccc(-c2nccc(-c3ccc(-n4cnc5ccccc54)cc3)n2)nc1` stands 9.23% (inactive); under `O=C(O)c1cc(-c2ccc(Cl)cc2)n(-c2cccc(Cl)c2)n1`, 2.43% (inactive); under `COc1cnc(-c2ccccn2)nc1Oc1cccc(Cl)c1`, -1.35% (inactive).
The same measure for `N#Cc1c(N2CCCC(O)C2)nc(N)c2c(N)nc3c(c12)CC(=O)N3C12CC3CC(CC(C3)C1)C2` (centres undefined): -0.93% (inactive); for `CC(C)(CS(=O)(=O)[O-])NC(=O)CC[N+](C)(C)CCO`: 2.71% (inactive).
Consider `Cc1nnc(NC(=O)C2C3C=CC(O3)C2C(=O)O)s1` (centres undefined), for which the inhibition is 16%.
For the compound `O=C(O)c1cc(-c2ccc(Cl)c(Cl)c2)n(-c2ccccc2)n1`, the inhibition is 0.56% (inactive).
For `O=C(NC1(O)C(=O)c2ccccc2C1=O)c1ccccc1`, the inhibition is 1.84% (inactive).
Regarding `COc1ccc2c(Cl)c(C(=O)N/N=C/c3ccc4c(c3)OCO4)sc2c1`, the inhibition is -0.4% (inactive).
`CCOC(=O)c1cnc(-n2cc(C)cn2)nc1NCc1ccc2c(c1)OCO2`: the inhibition is -0.82% (inactive).
